Data published in patent US20120004235A1, “METHODS TO TREAT CANCER” (Rutgers, The State University of New Jersey, priority 2009, published 2012).

Columns and labels:
[1] = system: HCT116 Human Colon Carcinoma; assay: Human tumor cell CFU assay (Test B); type: cell-based; conditions: Homo sapiens, HCT-116, colony formation, continuous exposure 7-9 days
Method: (§1) For human tumor cell CFU assays, the cell lines which grow as monolayers, MDA-MB-231, HCT116, HT29, NCI-H460, KB3-1 and KBV-1 were grown in RPMI medium (Invitrogen/Gibco, Grand Island, N.Y.) supplemented with 5% fetal bovine serum (Invitrogen/Gibco, Grand Island, NY). The RPMI-8226 cell line grows in suspension.
(§2) For experiments, human tumor cells (1 103) were plated in 6-well plates in medium supplemented with 5% or 10% fetal bovine serum. The compounds were tested in concentrations over the range from 0.01 to 100 nanomolar in half-log intervals covering […] along with untreated control wells. In later experiments some cases the concentration ranges were refined to focus on the region of interest in the response curves. Each compound concentration was tested in duplicate wells. Cultures were exposed to the compounds continuously for 7-9 days at 37° C. in a humidified atmosphere of 5% carbon dioxide balance air. Each experiment was performed three independent times. Colonies were defined as clusters containing 30 or more cells.
(§3) For the monolayer cultures, colonies were visualized by staining with a preformulated crystal violet solution (Fisher Cat #291-472) which contained 0.41% crystal violet, 12% ethanol balance deionized water. To visualize the colonies, the medium was removed by aspiration; the monolayer was rinsed once with phosphate buffered saline which was removed by aspiration. Three drops of crystal violet solution was added to each well and the 6-well plate was rotated so that the crystal violet solution covered the surface area of each well. After 5 minutes exposure time, the wells were rinsed twice with phosphate buffered saline and the colonies were visible.
(§4) The values were expressed as the mean values with lower and upper 95% confidence intervals in nanomolar concentrations.

[2] = system: HT29 Human Colon Carcinoma; assay: Human tumor cell CFU assay (Test B); type: cell-based; conditions: Homo sapiens, HT-29, colony formation, continuous exposure 7-9 days
Method: as §1, §2, §3, §4

[3] = system: KB-V1 MDR1+ KB3-1 Subline; assay: Human tumor cell CFU assay (Test B); type: cell-based; conditions: Homo sapiens; colony formation, continuous exposure 7-9 days
Method: as §1, §2, §3, §4

[4] = system: KB3-1 HeLa Human Cervical Carcinoma; assay: Human tumor cell CFU assay (Test B); type: cell-based; conditions: Homo sapiens, colony formation, continuous exposure 7-9 days
Method: as §1, §2, §3, §4

[5] = system: KBH5.0 BCRP+ KB3-1 Subline; assay: Human tumor cell CFU assay (Test B); type: cell-based; conditions: Homo sapiens, KB 3-1, colony formation, continuous exposure 7-9 days
Method: as §1, §2, §3, §4

[6] = system: MDA-MB-231 Human Breast Carcinoma; assay: Human tumor cell CFU assay (Test B); type: cell-based; conditions: Homo sapiens, MDA-MB-231, colony formation, continuous exposure 7-9 days
Method: as §1, §2, §3, §4

[7] = system: NCI-H460 Human Non-small Cell Lung Carcinoma; assay: Human tumor cell CFU assay (Test B); type: cell-based; conditions: Homo sapiens, NCI-H460, colony formation, continuous exposure 7-9 days
Method: as §1, §2, §3, §4

[8] = system: RPMI 8226 (multiple myeloma) human tumor cell line; assay: Cell TiterGlo cell growth inhibition (Test C); type: cell-based; conditions: 72 hours exposure, ATP content luminescence
Method: The RPMI 8226 (multiple myeloma) human tumor cell line was exposed to Compound 2 (free base) (or simply referred to herein throughout as “Compound 2”) at concentrations covering a […] (0.1 nM -100 nM) with an exposure time of 72 hours and experimental endpoint of cell growth inhibition as determined by a Cell TiterGlo luminescence assay (Promega) for ATP content. At least two independent experiments were conducted. The results were plotted and trend lines were graphed. […] Exposure to Compound 2 produced exponential killing of cells in a manner consistent with potent inhibition of a critical molecular target.

[9] = system: Human DLD-1 Colon Tumor Xenograft Model; assay: Test D xenograft, Compound 2 free base; type: in vivo, nu/nu mice
[10] = system: Human 786-0 Renal Cell Tumor Xenograft Model; assay: Test D xenograft, Compound 2 free base; type: in vivo, nu/nu mice; conditions: qod × 3 for 2 cycles
[11] = In vitro partitioning into red blood cells (Example 22); type: in vitro ADME; conditions: in vitro in mouse, rat, dog, and human
Method: (§5) The in vitro and in vivo activity of compound 2 and two of its metabolites (compound 5 and compound 6) were explored and compared with the activity of camptothecin Top1 inhibitors. […] In human HCT-116 colon ca, HT-29 colon ca and NCI-H460 NSCLC cells the concentration response for compound 2, compound 5 and compound 6 were the same. […] Compound 2 was administered intravenously on a QODx3 schedule for 2 cycles.

[12] = In vivo pharmacokinetics (Example 22); conditions: in vivo in mouse, rat and dog
Method: as §5

[13] = system: human HCT-116 colon ca, HT-29 colon ca and NCI-H460 NSCLC cells; assay: 72 hour exposure concentration response in tumor cells (Example 22); type: cell-based; conditions: range over HCT-116, HT-29 and NCI-H460 cells and the three compounds
Method: as §5

[14] = system: Human NCI-H292 Lung Tumor Xenograft Model; assay: Test D xenograft, Compound 2 free base; conditions: for Increase in Life Span (ILS) / Tumor Growth Delay T-C / Tumor Growth Inhibition T/C (tumor volume): qod × 3 for 2 cycles
[15] = read-out: IC50 Values (95% Lower and Upper Confidence Intervals)
[16] = read-out: IC90 Values (95% Lower and Upper Confidence Intervals)
[17] = 1 mg/kg/day IV, qod × 3 for 2 cycles
[18] = 4 mg/kg/day IV/QODx3 for 2 cycles

CNCCn1c(=O)c2cc(OC)c(OC)cc2c2cnc3cc4c(cc3c21)OCO4 [Compound 2, 8,9-dimethoxy-2,3-methylenedioxy-5-[2-(N-methylamino)ethyl]-5H-dibenzo[c,h]1,6-naphthyridin-6-one]
IC50 [1, 15]: 0.9 nM | IC90 [1, 16]: 2.8 nM | IC50 [2, 15]: 0.15 nM | IC90 [2, 16]: 0.9 nM | IC50 [3]: 2 nM | IC90 [3]: 8.3 nM | IC50 [4]: 1.7 nM | IC90 [4, 16]: 7.7 nM | IC90 [5]: 3 nM | IC50 [5, 15]: 1 nM | IC50 [6, 15]: 0.2 nM | IC90 [6, 16]: 0.7 nM | IC50 [7, 15]: 1.2 nM | IC90 [7, 16]: 5 nM | IC50 ([8]; read-out: IC50 concentration): 3.4 nM | IC90 ([8]; read-out: IC90 concentration): 30 nM | Increase in Life Span (ILS) [9, 17]: 1.2x | Tumor Growth Delay T-C [9, 17]: 8 days | Tumor Growth Inhibition T/C (tumor volume) [9, 17]: 51.3% | ILS (T/C) [9, 18]: 1.2x | TGD (T-C) [9, 18]: 8 days | Increase in Life Span (ILS) ([10]; 1 mg/kg/day IV): 1.2x | Tumor Growth Delay T-C ([10]; 1 mg/kg/day IV): 10 days | Tumor Growth Inhibition T/C (tumor volume) ([10]; 1 mg/kg/day IV): 52.5% | Increase in Life Span (ILS) ([10]; 1.36 mg/kg/day IV): 1.2x | Tumor Growth Delay T-C ([10]; 1.36 mg/kg/day IV): 10 days | Tumor Growth Inhibition T/C (tumor volume) ([10]; 1.36 mg/kg/day IV): 52.2% | Increase in Life Span (ILS) ([10]; 1.7 mg/kg/day IV): 1.4x | Tumor Growth Delay T-C ([10]; 1.7 mg/kg/day IV): 17 days | Tumor Growth Inhibition T/C (tumor volume) ([10]; 1.7 mg/kg/day IV): 25.9% | partitioning into red blood cells [11]: concentration dependent partitioning into red blood cells | clearance [12]: low-to-moderate clearance | volume of distribution [12]: large volume of distribution | IC50 ([13]; read-out: IC50 concentrations): 0.5 to 0.65 nM | IC90 ([13]; read-out: IC90 concentrations): 1.8 to 2 nM | Increase in Life Span (ILS) ([14]; 1 mg/kg/day IV): 1.5x | Tumor Growth Delay T-C ([14]; 1 mg/kg/day IV): 18 days | Tumor Growth Inhibition T/C (tumor volume) ([14]; 1 mg/kg/day IV): 29.4% | Increase in Life Span (ILS) ([14]; 1.36 mg/kg/day IV): 1.6x | Tumor Growth Delay T-C ([14]; 1.36 mg/kg/day IV): 21 days | Tumor Growth Inhibition T/C (tumor volume) ([14]; 1.36 mg/kg/day IV): 25.2% | Increase in Life Span (ILS) ([14]; 1.7 mg/kg/day IV): 1.6x | Tumor Growth Delay T-C ([14]; 1.7 mg/kg/day IV): 21 days | Tumor Growth Inhibition T/C (tumor volume) ([14]; 1.7 mg/kg/day IV): 15.2% | maximum body weight loss ([14]; high dosage, IV QODx3 for 2 cycles): 20.9%
